From paper PMC6270011, “Design and Synthesis of Arylthiophene-2-Carbaldehydes via Suzuki-Miyaura Reactions and Their Biological Evaluation” (Molecules, 2013)
In brackets after ≈: the same amount, converted by molar mass. Read-outs that look alike come from different tables or passages of the source.

Experiments:
[1] = Nitric oxide (NO) scavenging assay; format: biochemical
Source text: Nitric oxide (NO) is a free radical causing inflammatory disorders and cancer in the human body when sodium nitroprusside decomposes to produce nitric oxide. The antioxidant activity of various thiophene derivatives has been reported in the literature and it has also been observed that compounds with high antioxidant activity served as antitumor agents. The newly synthesized compounds reacted directly with nitric oxide and inhibited nitrite formation in an excellent way.
The reaction mixtures comprising sample solution (2 µL), phosphate buffer (17 µL) and sodium nitroprusside (20 µL) were incubated at 37 °C for 2 h in well plates. Then Griess reagent (20 µL, 0.3% sulphanilic acid in glacial acetic acid + 0.1% naphthylethylenediamine (NED): equal volumes of both solutions mixed just before use) was added to each well plate and the mixture kept at room temperature for 20 min to develop the color. The absorbance was measured at 528 nm by using an ELISA reader. The results were processed using Gen 5 software. All the reactions were performed in triplicate. Positive control (containing known antioxidant) and control (containing all samples) were run in parallel. Negative control was used to calibrate the instrument. The % age antioxidant activity was determined by using the following formula: % antioxidant activity = [(Absorbance of control − absorbance of sample)/(Absorbance of control)] × 100

[2] = tested on: human red blood cells (erythrocytes); format: cell-based; settings: for Haemolytic activity, percentage of lysis (Average ± SD): human erythrocytes, 37 °C, 35 min
Protocol: Three mL of freshly obtained human blood was placed in heparinized tubes to avoid coagulation, gently mixed and poured into a sterile 15 mL Falcon tube and centrifuged for 5 min at 1,000 ×g. The supernatant was discarded and red blood cells were washed three times with chilled (4 °C) sterile isotonic phosphate buffer saline pH 7.4 (5 mL). Erythrocytes (10^8 cells/mL) were maintained for each assay by dilution with phosphate buffer saline. Erythrocytes were counted on a heamacytometer. Twenty µL of each compound was mixed with red blood cells suspension (180 μL) separately. The samples were incubated at 37 °C for 35 min. The samples were placed on ice for 5 min and then agitated at 1,000 ×g for 5 min. Supernatant (100 µL) were taken from each tube and diluted 10 times with chilled (4 °C) phosphate buffered saline. Triton X-100 (0.1% v/v) was taken as a positive control and PBS was negative control and then subjected to the same process. […] The percentage RBSs lyses for each sample was calculated.

Escherichia coli = assay: Antibacterial activity (disc / inhibition zone) against Escherichia coli; settings: for zone of inhibition at 25 µg/mL / zone of inhibition at 50 µg/mL: read-out: Inhibition zone, E.coli
Salmonella typhi = assay: Antibacterial activity (disc / inhibition zone) against Salmonella typhi; settings: Salmonella enterica; for zone of inhibition at 25 µg/mL / zone of inhibition at 50 µg/mL: read-out: Inhibition zone, S. typhi
Bacillus subtilis = assay: Antibacterial activity (disc / inhibition zone) against Bacillus subtilis; settings: for zone of inhibition at 25 µg/mL / zone of inhibition at 50 µg/mL: read-out: Inhibition zone, B. subtilis
Shigella dysenteriae = assay: Antibacterial activity (disc / inhibition zone) against Shigella dysenteriae; settings: read-out: Inhibition zone, S. dysenteriae
Staphylococcus aureus = assay: Antibacterial activity (disc / inhibition zone) against Staphylococcus aureus; settings: for zone of inhibition at 25 µg/mL / zone of inhibition at 50 µg/mL: read-out: Inhibition zone, S. aureus
Pseudomonas aeruginosa = assay: Antibacterial activity (disc / inhibition zone) against Pseudomonas aeruginosa; settings: read-out: Inhibition zone, P. aeruginosa
[3] = 25 µg/mL, read-out: % Activity at 25 µg (NO scavenging)
[4] = 50 µg/mL, read-out: % Activity at 50 µg (NO scavenging)
[5] = 100 µg/mL, read-out: % Activity at 100 µg (NO scavenging)

Row | SMILES | IC50 (NO scavenging) [1] | inhibition [1, 3] | inhibition [1, 4] | inhibition [1, 5] | Haemolytic activity, percentage of lysis (Average ± SD) [2] | melting point | zone of inhibition at 25 µg/mL (Escherichia coli) | zone of inhibition at 50 µg/mL (Escherichia coli) | zone of inhibition at 25 µg/mL (Salmonella typhi) | zone of inhibition at 50 µg/mL (Salmonella typhi) | zone of inhibition at 25 µg/mL (Bacillus subtilis) | zone of inhibition at 50 µg/mL (Bacillus subtilis) | zone of inhibition at 25 µg/mL (Shigella dysenteriae) | zone of inhibition at 50 µg/mL (Shigella dysenteriae) | zone of inhibition at 25 µg/mL (Staphylococcus aureus) | zone of inhibition at 50 µg/mL (Staphylococcus aureus) | zone of inhibition at 25 µg/mL (Pseudomonas aeruginosa) | zone of inhibition at 50 µg/mL (Pseudomonas aeruginosa) | also measured
1 | O=Cc1cc(-c2ccc(F)c(Cl)c2)cs1 [2i, 4-(3-Chloro-4-fluorophenyl)thiophene-2-carbaldehyde] | 46.1 µg/mL (≈ 192 µM) | 12 ± 0.05% | 57 ± 0.0021% | 72 ± 0.009% | 9.779 ± 0.095% | 108 to 110 °C | 16 ± 0.043 mm | 26 ± 0.023 mm | 33 ± 0.25 mm | 59.5 ± 0.25 mm | 36.5 ± 0.04 mm | 56 ± 0.5 mm | 43 ± 0.105 mm | 58 ± 0.16 mm | 27.8 ± 0.12 mm | 58 ± 0.16 mm | 42 ± 0.04 mm | 66 ± 0.01 mm | Haemolytic activity, in words [2]: highest haemolytic action
2 | Cc1ccc(-c2csc(C=O)c2)s1 [2j, 5-Methyl-2,3-bisthiophene-5-carbaldehyde] | 49.3 µg/mL (≈ 237 µM) | 15 ± 0.021% | 50 ± 0.024% | 65 ± 0.013% | 4.135 ± 0.095% | 218 to 220 °C | 26 ± 0.03 mm | 66 ± 0.43 mm | 29 ± 0.1 mm | 63 ± 0.1 mm | 27.1 ± 0.01 mm | 60 ± 0.05 mm | 35 ± 0.2 mm | 65 ± 0.09 mm | 35.2 ± 0.01 mm | 65 ± 0.09 mm | 36 ± 0.16 mm | 69 ± 0.16 mm | IC50 (Escherichia coli; read-out: IC50 against Escherichia coli): 40 µg/mL (≈ 192 µM); IC50 (Salmonella typhi; read-out: IC50 against Salmonella typhi): 37.4 µg/mL (≈ 180 µM); IC50 (Staphylococcus aureus; read-out: IC50 against Staphylococcus aureus): 37.4 µg/mL (≈ 180 µM)
3 | O=Cc1cc(-c2ccc(Cl)s2)cs1 [2c] | 83.3 µg/mL (≈ 364 µM) | 18 ± 0.007% | 40 ± 0.038% | 55 ± 0.04% | 3.934 ± 0.095% | 229 to 231 °C | 14 ± 0.14 mm | 24 ± 0.17 mm | 34 ± 0.05 mm | 64 ± 0.5 mm | 36.2 ± 0.05 mm | 60 ± 0.01 mm | 35 ± 0.01 mm | 64 ± 0.11 mm | 34 ± 0.01 mm | 64 ± 0.11 mm | 45 ± 0.019 mm | 60 ± 0.009 mm | IC50 (Bacillus subtilis; read-out: IC50 against Bacillus subtilis): 39.4 µg/mL (≈ 172 µM)
4 | O=Cc1cc(-c2ccccc2)cs1 [2a, 4-Phenylthiophene-2-carbaldehyde] | 92.5 µg/mL (≈ 491 µM) | 12 ± 0.037% | 33 ± 0.0035% | 48 ± 0.049% | 3.947 ± 0.078% | 57 to 59 °C | – | 47 ± 0.15 mm | – | 61 ± 0.13 mm | – | 61 ± 0.14 mm | – | 63 ± 0.18 mm | – | 63 ± 0.18 mm | – | 67.6 ± 0.001 mm | –
5 | O=Cc1cc(-c2ccc(Cl)c(Cl)c2)cs1 [2h, 4-(3,4-Dichlorophenyl)thiophene-2-carbaldehyde] | – | 13 ± 0.002% | 20 ± 0.025% | 35 ± 0.077% | 3.487 ± 0.054% | 158 to 160 °C | 32 ± 0.03 mm | 60 ± 0.24 mm | 30 ± 0.13 mm | 57 ± 0.01 mm | 28 ± 0.03 mm | 58 ± 0.22 mm | 29 ± 0.19 mm | 59.4 ± 0.45 mm | 39.4 ± 0.05 mm | 59.4 ± 0.45 mm | 40 ± 0.041 mm | 67 ± 0.021 mm | –
